Tests used:
Assay type in all cases: binding
[1] = target: kinases (KINOMEscan panel) (Homo sapiens, UniProt Q16539)
[2] = target: kinases (KINOMEscan panel) (Homo sapiens, UniProt P36888, D835V); settings: NEW KINOMEscan
[3] = target: T1, kinases (KINOMEscan panel) (Homo sapiens, UniProt Q09013); settings: kinase DMPK; NEW KINOMEscan
T1 sequence (Q09013 1-629): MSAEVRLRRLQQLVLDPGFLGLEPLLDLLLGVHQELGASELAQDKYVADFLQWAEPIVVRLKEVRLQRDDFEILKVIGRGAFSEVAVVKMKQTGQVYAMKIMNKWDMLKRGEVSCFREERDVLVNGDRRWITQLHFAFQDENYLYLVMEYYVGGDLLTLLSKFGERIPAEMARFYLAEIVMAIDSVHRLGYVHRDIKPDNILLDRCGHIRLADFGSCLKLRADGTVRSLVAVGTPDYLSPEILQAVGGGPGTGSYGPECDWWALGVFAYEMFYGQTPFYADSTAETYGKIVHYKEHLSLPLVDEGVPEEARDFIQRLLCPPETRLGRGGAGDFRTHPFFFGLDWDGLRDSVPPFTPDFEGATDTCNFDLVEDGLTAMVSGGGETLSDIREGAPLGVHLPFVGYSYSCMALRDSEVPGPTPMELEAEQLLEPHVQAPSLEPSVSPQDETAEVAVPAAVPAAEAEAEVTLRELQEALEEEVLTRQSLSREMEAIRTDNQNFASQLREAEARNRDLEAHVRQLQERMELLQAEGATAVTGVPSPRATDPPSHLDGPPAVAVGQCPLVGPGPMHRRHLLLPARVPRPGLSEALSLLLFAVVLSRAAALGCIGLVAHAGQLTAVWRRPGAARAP

[4] = target: kinases (KINOMEscan panel) (Homo sapiens, UniProt Q04759); settings: kinase PRKCQ; NEW KINOMEscan
Sequence of kinases (KINOMEscan panel) (Homo sapiens, UniProt Q04759) (Q04759 whole entry): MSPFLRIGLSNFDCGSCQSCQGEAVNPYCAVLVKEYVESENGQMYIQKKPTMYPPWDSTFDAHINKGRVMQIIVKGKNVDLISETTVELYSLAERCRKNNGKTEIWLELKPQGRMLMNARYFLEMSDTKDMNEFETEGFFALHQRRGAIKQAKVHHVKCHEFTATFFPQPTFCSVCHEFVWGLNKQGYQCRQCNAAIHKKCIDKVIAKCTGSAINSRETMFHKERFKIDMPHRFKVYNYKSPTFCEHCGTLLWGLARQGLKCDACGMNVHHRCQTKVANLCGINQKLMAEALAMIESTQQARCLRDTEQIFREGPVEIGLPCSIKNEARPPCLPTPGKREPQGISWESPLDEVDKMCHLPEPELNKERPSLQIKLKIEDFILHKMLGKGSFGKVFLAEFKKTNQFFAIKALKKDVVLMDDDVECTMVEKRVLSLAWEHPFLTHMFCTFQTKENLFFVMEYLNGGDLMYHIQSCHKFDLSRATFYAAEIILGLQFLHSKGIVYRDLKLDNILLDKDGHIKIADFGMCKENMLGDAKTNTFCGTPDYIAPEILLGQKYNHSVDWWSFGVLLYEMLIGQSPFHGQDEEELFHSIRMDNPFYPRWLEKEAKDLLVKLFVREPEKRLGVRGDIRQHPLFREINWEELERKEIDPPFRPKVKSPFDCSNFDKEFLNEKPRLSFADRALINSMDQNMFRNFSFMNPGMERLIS

[5] = target: T2, kinases (KINOMEscan panel) (Homo sapiens, UniProt Q99640); settings: kinase PKMYT1; NEW KINOMEscan
T2 sequence (Q99640 1-499): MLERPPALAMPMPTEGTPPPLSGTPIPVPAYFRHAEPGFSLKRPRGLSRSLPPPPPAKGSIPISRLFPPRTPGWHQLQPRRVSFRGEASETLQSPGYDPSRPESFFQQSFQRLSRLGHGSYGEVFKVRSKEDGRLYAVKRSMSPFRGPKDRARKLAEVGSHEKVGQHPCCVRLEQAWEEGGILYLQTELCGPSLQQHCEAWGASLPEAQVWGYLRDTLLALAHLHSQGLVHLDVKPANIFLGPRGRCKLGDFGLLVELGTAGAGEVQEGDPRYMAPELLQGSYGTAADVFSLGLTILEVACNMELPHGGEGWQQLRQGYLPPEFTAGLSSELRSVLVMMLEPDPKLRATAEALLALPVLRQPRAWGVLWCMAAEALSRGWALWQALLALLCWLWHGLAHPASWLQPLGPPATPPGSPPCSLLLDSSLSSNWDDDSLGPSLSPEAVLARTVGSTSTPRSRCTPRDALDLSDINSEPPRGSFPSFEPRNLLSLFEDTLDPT

[6] = target: kinases (KINOMEscan panel) (Homo sapiens, UniProt P08581, Y1235D); settings: kinase MET(Y1235D); NEW KINOMEscan
[7] = target: kinases (KINOMEscan panel) (Homo sapiens, UniProt P49840); settings: GSK3A; NEW KINOMEscan
Sequence of kinases (KINOMEscan panel) (Homo sapiens, UniProt P49840) (P49840 whole entry): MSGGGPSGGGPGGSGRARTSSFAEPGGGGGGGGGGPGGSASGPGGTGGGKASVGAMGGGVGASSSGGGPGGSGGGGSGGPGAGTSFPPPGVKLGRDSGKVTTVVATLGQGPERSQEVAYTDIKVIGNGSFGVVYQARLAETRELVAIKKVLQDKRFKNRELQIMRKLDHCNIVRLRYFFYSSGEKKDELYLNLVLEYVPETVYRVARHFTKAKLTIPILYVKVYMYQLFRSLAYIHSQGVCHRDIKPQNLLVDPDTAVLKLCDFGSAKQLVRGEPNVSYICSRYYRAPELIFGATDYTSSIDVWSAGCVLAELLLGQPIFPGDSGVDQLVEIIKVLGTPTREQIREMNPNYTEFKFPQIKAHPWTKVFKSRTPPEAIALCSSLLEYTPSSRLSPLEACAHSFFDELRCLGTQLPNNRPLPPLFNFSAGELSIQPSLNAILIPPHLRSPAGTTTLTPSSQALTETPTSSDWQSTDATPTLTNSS

[8] = target: T3, kinases (KINOMEscan panel) (Homo sapiens, UniProt Q96BR1); settings: kinase SGK3; NEW KINOMEscan
T3 sequence (Q96BR1 1-496): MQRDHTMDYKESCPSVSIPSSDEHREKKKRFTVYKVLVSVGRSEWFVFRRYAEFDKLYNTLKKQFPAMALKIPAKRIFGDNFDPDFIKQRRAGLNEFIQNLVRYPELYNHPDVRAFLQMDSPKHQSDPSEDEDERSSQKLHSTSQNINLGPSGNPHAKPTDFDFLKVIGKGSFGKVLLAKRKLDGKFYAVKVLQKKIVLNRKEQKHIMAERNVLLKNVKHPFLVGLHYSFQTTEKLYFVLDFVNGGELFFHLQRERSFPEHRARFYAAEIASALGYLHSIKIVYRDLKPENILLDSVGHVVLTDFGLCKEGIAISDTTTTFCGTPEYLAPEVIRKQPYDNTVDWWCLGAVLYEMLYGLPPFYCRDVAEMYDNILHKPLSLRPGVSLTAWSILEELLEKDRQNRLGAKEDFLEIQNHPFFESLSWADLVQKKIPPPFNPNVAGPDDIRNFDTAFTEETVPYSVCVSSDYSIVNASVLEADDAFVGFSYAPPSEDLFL

[9] = target: kinases (KINOMEscan panel) (Homo sapiens, UniProt Q5S007, G2019S); settings: NEW KINOMEscan
Sequence of kinases (KINOMEscan panel) (Homo sapiens, UniProt Q5S007, G2019S) (Q5S007 whole entry G2019S): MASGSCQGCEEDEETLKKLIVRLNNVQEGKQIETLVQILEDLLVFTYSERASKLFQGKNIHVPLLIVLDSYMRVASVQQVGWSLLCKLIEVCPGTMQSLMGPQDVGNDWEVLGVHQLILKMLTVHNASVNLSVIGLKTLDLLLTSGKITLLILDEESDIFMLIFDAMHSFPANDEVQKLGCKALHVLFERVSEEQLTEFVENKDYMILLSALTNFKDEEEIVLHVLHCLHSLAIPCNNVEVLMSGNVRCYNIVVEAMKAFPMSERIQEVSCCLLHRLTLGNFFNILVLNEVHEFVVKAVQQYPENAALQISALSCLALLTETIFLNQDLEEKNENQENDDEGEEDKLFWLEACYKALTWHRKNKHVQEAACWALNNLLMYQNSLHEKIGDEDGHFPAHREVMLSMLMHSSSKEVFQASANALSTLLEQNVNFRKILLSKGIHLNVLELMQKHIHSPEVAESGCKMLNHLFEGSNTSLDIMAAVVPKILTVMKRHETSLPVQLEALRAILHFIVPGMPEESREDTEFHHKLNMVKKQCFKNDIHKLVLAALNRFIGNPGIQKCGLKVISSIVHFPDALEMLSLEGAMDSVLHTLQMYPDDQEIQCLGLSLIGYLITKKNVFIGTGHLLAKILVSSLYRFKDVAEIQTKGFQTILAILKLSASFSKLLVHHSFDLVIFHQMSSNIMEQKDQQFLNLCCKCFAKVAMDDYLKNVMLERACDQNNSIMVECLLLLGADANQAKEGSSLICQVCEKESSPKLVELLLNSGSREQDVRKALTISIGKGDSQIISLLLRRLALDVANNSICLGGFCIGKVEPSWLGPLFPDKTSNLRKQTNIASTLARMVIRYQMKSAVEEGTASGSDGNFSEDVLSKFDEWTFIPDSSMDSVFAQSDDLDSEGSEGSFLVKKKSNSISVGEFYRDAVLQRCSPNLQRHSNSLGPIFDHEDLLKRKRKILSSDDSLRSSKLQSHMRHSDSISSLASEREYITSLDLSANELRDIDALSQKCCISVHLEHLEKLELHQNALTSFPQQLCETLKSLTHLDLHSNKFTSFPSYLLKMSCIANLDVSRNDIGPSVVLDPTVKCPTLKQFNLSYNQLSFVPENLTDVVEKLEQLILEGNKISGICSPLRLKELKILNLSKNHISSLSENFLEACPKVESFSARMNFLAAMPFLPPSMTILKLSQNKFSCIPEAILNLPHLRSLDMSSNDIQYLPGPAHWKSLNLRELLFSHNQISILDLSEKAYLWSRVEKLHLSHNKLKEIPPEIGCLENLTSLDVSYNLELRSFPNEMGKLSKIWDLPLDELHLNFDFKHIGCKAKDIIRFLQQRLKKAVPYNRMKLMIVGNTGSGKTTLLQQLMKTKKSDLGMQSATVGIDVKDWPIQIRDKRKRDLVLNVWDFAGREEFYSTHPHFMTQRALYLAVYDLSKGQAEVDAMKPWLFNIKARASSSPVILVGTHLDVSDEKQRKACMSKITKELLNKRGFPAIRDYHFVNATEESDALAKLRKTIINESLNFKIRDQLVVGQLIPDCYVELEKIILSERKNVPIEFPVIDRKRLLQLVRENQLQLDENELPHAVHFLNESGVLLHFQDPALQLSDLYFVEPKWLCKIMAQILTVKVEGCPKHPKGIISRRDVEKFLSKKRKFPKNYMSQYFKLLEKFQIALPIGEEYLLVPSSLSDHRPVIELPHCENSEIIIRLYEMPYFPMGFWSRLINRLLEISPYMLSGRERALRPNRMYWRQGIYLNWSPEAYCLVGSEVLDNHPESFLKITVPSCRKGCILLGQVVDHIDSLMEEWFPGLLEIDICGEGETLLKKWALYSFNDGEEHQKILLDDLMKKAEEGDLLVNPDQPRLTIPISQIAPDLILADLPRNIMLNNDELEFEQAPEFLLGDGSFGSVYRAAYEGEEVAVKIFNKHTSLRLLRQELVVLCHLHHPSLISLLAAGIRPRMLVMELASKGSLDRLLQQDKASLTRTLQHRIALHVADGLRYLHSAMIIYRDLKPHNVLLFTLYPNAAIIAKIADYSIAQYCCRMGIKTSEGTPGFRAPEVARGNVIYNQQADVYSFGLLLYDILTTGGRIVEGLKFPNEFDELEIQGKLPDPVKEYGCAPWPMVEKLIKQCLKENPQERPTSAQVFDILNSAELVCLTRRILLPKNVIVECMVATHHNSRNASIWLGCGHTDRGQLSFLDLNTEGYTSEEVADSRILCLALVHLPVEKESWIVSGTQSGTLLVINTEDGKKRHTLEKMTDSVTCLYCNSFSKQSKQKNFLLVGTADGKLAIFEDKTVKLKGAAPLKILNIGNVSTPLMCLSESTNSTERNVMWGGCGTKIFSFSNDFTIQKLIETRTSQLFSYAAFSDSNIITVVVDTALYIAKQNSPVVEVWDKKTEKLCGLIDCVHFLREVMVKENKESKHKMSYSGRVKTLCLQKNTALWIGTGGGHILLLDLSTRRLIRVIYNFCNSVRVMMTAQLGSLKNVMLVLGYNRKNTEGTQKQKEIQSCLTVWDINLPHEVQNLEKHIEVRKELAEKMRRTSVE

[10] = target: kinases (KINOMEscan panel) (Homo sapiens, UniProt P49760); settings: kinase CLK2; NEW KINOMEscan
[11] = target: kinases (KINOMEscan panel) (Homo sapiens, UniProt P0C1S8); settings: WEE2; NEW KINOMEscan
[12] = target: kinases (KINOMEscan panel) (Homo sapiens, UniProt P08631); settings: kinase HCK; NEW KINOMEscan
[13] = target: kinases (KINOMEscan panel) (Homo sapiens, UniProt P00533, G719C); settings: kinase EGFR(G719C); NEW KINOMEscan
Sequence of kinases (KINOMEscan panel) (Homo sapiens, UniProt P00533, G719C) (P00533 25-1210 G719C): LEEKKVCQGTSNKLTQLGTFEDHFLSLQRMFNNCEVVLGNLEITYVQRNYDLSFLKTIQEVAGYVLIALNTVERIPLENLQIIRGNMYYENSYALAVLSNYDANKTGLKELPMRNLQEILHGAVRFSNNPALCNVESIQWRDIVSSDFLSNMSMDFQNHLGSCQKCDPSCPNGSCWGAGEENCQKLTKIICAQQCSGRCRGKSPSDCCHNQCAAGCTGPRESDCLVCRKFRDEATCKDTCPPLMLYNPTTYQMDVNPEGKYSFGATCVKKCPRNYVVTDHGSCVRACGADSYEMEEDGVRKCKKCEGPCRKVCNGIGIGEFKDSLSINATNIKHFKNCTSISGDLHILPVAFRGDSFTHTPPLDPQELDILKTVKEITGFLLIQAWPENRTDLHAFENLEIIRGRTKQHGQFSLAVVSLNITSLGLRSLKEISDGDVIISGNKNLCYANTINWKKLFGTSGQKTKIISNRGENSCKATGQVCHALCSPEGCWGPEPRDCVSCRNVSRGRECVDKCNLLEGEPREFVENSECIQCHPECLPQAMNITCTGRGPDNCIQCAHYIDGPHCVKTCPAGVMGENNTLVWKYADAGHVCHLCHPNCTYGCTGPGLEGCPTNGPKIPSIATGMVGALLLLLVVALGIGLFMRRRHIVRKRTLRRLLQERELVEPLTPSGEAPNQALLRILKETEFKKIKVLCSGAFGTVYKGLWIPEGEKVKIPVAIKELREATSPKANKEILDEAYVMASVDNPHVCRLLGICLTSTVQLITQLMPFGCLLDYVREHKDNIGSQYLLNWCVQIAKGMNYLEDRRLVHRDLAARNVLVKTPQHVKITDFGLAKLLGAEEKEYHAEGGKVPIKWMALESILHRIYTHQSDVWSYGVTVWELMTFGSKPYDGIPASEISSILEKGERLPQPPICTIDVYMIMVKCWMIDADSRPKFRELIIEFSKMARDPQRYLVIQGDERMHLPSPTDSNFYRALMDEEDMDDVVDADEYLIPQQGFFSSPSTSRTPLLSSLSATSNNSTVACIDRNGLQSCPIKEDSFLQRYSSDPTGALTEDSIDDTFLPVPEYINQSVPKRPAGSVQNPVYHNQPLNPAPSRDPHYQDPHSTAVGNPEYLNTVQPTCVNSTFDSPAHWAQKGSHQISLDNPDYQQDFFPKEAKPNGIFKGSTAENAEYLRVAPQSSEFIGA

[14] = target: kinases (KINOMEscan panel) (Homo sapiens, UniProt Q15303); settings: kinase ERBB4; NEW KINOMEscan

SMILES	KINOMEscan MAPK14/p38-alpha [1]	KINOMEscan FLT3(D835V) [2]	KINOMEscan DMPK [3]	KINOMEscan PRKCQ [4]	KINOMEscan PKMYT1 [5]	KINOMEscan MET(Y1235D) [6]	KINOMEscan GSK3A [7]	KINOMEscan SGK3 [8]	KINOMEscan LRRK2(G2019S) [9]	KINOMEscan CLK2 [10]	KINOMEscan WEE2 [11]	KINOMEscan HCK [12]	KINOMEscan EGFR(G719C) [13]	KINOMEscan ERBB4 [14]
Cc1cccc(-c2nc(Nc3ccc4nn(C)cc4c3)c3ccccc3n2)n1 [NK167]	5	19	0	0	0	7	0	0	39	0	0	14	0	0
Cc1cccc(-c2nc(N(C)c3ccc4ncsc4c3)c3ccccc3n2)n1 [NK-161]	8	30	0	7	0	1	0	13	31	0	5	16	0	0
